Like-named read-outs stand apart in the source and are kept apart here. Starred links: 1 amine or outer side, 2 acyl side, 3 side chain; linkers in the order of their positions; H or OH if unused. Positions of bridges follow the written chain, without caps; N, C: chain ends. Non-standard residues stand in square brackets, D forms with d. Residues, ends and D or L forms follow the SMILES beside them. *: point of attachment. Phe(3-NHCO(CH2)3SO2NH2) = N[C@@H](Cc1cccc(NC(=O)CCCS(N)(=O)=O)c1)C(=O)O; X35 = CC(=O)N[C@@H](CCC(=O)Nc1cccc(C[C@H](N[*:1])C(=O)[*:2])c1)C(=O)O; X3 = O=C(O)CN1CCN(CC(=O)O)CCN(CC(=O)NCCCOCCOCCOCCCN*)CCN(CC(=O)O)CC1; X33 = CC(=O)N[C@@H](CC(=O)Nc1cccc(C[C@H](N[*:1])C(=O)[*:2])c1)C(=O)O; NH(1-deoxy-D-glucityl) = OC[C@@H](O)[C@@H](O)[C@H](O)[C@@H](O)CN*; DOTA = O=C(O)CN1CCN(CC(=O)O)CCN(CC(=O)*)CCN(CC(=O)O)CC1; Trp(5-Cl) = N[C@@H](Cc1c[nH]c2ccc(Cl)cc12)C(=O)O; Phe(4-CF3) = N[C@@H](Cc1ccc(C(F)(F)F)cc1)C(=O)O; Benzoyl(4-SO2NH2) = NS(=O)(=O)c1ccc(C(=O)*)cc1; Nip(3R) = O=C([C@@H]1CCCN([*:1])C1)[*:2]; Propanoyl(3-SO2NH2) = NS(=O)(=O)CCC(=O)*; Phe(4-NH2) = Nc1ccc(C[C@H](N)C(=O)O)cc1; mXylylene = c1cc(C[*:1])cc(C[*:2])c1; X2 = O=C(CN1CCC(N[*:1])CC1)[*:2]; X1 = O=C(CN1CCN([*:1])CC1)[*:2]; NMeD = CN[C@@H](CC(=O)O)C(=O)O; Suc = O=C(CCC(=O)[*:2])[*:1]; dPip = O=C(O)[C@H]1CCCCN1; Dap = NC[C@H](N)C(=O)O; AEEA = NCCOCCOCC(=O)O; GABA = NCCCC(=O)O; Sar = CNCC(=O)O
Tests used:
[1] = target: T1, CAIX-expressing human HT-29 colorectal cancer cells (Homo sapiens, UniProt Q16790); test: FACS binding assay (IC50 determination, competition with tracer 3BP-2776 or 3BP-4149); conditions: 4° C., 1 hour, read-out: pIC50 category (activity) (converted)
T1 construct: CAIX-expressing human HT-29 colorectal cancer cells; host or cells: HT-29 human colorectal cancer cells
Method in brief: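 HT-29 cells in FACS buffer (PBS, 1% FCS) at 500.000 cells/ml were exposed to compounds competing with a labelled tracer, with biotinylated compounds detected by 1 μg/mL APC-streptavidin for 30 min on ice. APC/Cy5 median fluorescence was read by flow cytometry and IC50 derived by 4PL fit.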

[2] = target: T2, human carbonic anhydrase IX (hCAIX-Fc) (Homo sapiens, UniProt Q16790); test: Surface plasmon resonance assay with hCAIX-Fc; assay type: binding; conditions: 25° C.; for t1/2 category (activity): SPR dissociation half-life, hCAIX-Fc; for Kd: SPR, hCAIX-Fc captured, read-out: pKD category (activity) (converted)
T2 construct: purchased SinoBliological (Sino Biological) 10107-H02H

[3] = FACS competition on HT-29 cells, Tracer ID 3BP-2776 (10 nM, biotin-labeled)
[4] = FACS binding assay, HT-29 cells, competition with tracer 3BP-2776 (10 nM, biotin-labeled)
[5] = FACS binding assay, HT-29 cells, competition with tracer 3BP-4149 (3 nM, Cy5-labeled)

IC50 [1, 3]	t1/2 category (activity) [2]	Kd [2]	IC50 [1, 4]	IC50 [1, 5]	Compound
< 0.01 µM	C (t1/2 between 2.1 and 5.0 minutes)	0.01 to 0.0794 µM	–	–	CC(C)C[C@@H]1NC(=O)[C@H](Cc2c[nH]c3ccccc23)NC(=O)[C@H](CC(=O)O)NC(=O)[C@H]2CCCN2C(=O)[C@H](CCC(=O)O)NC(=O)[C@@H](NC(=O)[C@H](Cc2ccc(O)cc2)NC(=O)COCCOCCNC(=O)CN2CCN(CC(=O)O)CCN(CC(=O)O)CCN(CC(=O)O)CC2)CSCc2cccc(c2)CSC[C@@H](C(N)=O)NC(=O)[C@H](CO)NC(=O)[C@H](Cc2c[nH]c3ccccc23)NC(=O)[C@H]([C@@H](C)O)NC1=O [3BP-3869] ({DOTA-AEEA}-YCE[dP]DWLTWSC-NH2; linker 2-11 via mXylylene)
–	A (t1/2>15.0 minutes)	< 0.01 µM	< 0.01 µM	–	CC(C)C[C@@H]1NC(=O)[C@H](Cc2c[nH]c3ccccc23)NC(=O)[C@H](CC(=O)O)N(C)C(=O)[C@H]2CCCN2C(=O)[C@H](CCC(=O)O)NC(=O)[C@@H](NC(=O)[C@H](Cc2ccc(O)cc2)NC(=O)[C@@H](NC(=O)CN2CCC(NC(=O)CN3CCN(CC(=O)O)CCN(CC(=O)O)CCN(CC(=O)O)CC3)CC2)C(C)C)CSCc2cccc(c2)CSC[C@@H](C(N)=O)NC(=O)[C@H](CO)NC(=O)[C@H](Cc2c[nH]c3ccccc23)NC(=O)[C@H]([C@@H](C)O)NC1=O [3BP-4107] ({DOTA}-[X2]VYCE[dP][NMeD]WLTWSC-NH2; linker 4-13 via mXylylene)
–	A (t1/2>15.0 minutes)	< 0.01 µM	< 0.01 µM	–	CC(C)C[C@@H]1NC(=O)[C@H](Cc2c[nH]c3ccccc23)NC(=O)[C@H](CC(=O)O)NC(=O)[C@H]2CCCN2C(=O)[C@H](CCC(=O)O)NC(=O)[C@@H](NC(=O)[C@H](Cc2ccc(O)cc2)NC(=O)[C@@H](NC(=O)CN2CCC(NC(=O)CN3CCN(CC(=O)O)CCN(CC(=O)O)CCN(CC(=O)O)CC3)CC2)C(C)C)CSCc2cccc(c2)CSC[C@@H](C(N)=O)NC(=O)[C@H](CO)NC(=O)[C@H](Cc2c[nH]c3ccccc23)NC(=O)[C@H](CCC(=O)NC[C@H](O)[C@@H](O)[C@H](O)[C@H](O)CO)NC1=O [3BP-4121] ({DOTA}-[X2]VYCE[dP]DWLE(NH(1-deoxy-D-glucityl))WSC-NH2; linker 4-13 via mXylylene)
< 0.01 µM	B (t1/2 between 5.1 and 15.0 minutes)	< 0.01 µM	–	–	CC(=O)N[C@H](C(=O)N[C@@H](Cc1ccc(O)cc1)C(=O)N[C@H]1CSCc2cccc(c2)CSC[C@@H](C(N)=O)NC(=O)[C@H](CCC(N)=O)NC(=O)[C@H](Cc2c[nH]c3ccccc23)NC(=O)[C@H]([C@@H](C)O)NC(=O)[C@H](CC(C)C)NC(=O)[C@H](Cc2c[nH]c3ccc(Cl)cc23)NC(=O)[C@H](CC(=O)O)NC(=O)CN(C)C(=O)[C@H](CCC(=O)O)NC1=O)C(C)C [3BP-3289] (Ac-VYCE[Sar]D[Trp(5-Cl)]LTWQC-NH2; linker 3-12 via mXylylene)
–	C (t1/2 between 2.1 and 5.0 minutes)	< 0.01 µM	–	< 0.01 µM	CC(C)C[C@@H]1NC(=O)[C@H](Cc2c[nH]c3ccccc23)NC(=O)[C@H](CC(=O)O)NC(=O)[C@H]2CCCN2C(=O)[C@H](CCC(=O)O)NC(=O)[C@@H]2CSCc3cccc(c3)CSC[C@@H](C(N)=O)NC(=O)[C@H](CNC(=O)C[C@H](NC(=O)CCCNC(=O)CN3CCN(CC(=O)O)CCN(CC(=O)O)CCN(CC(=O)O)CC3)C(=O)N2)NC(=O)[C@H](Cc2c[nH]c3ccccc23)NC(=O)[C@H]([C@@H](C)O)NC1=O [3BP-4263] ({DOTA-GABA}-DCE[dP]DWLTW[Dap]C-NH2; lactam 1-10; linker 2-11 via mXylylene)
–	A (t1/2>15.0 minutes)	< 0.01 µM	–	0.01 to 0.0794 µM	CC(=O)N[C@@H](CCC(=O)Nc1cccc(C[C@@H]2NC(=O)[C@H](CC(=O)O)NC(=O)[C@H]3CCCN3C(=O)[C@H](CCC(=O)O)NC(=O)[C@@H](NC(=O)[C@H](Cc3ccc(O)cc3)NC(=O)[C@@H](NC(=O)CN3CCC(NC(=O)CN4CCN(CC(=O)O)CCN(CC(=O)O)CCN(CC(=O)O)CC4)CC3)C(C)C)CSCc3cccc(c3)CSC[C@@H](C(N)=O)NC(=O)[C@H](CO)NC(=O)[C@H](Cc3c[nH]c4ccccc34)NC(=O)[C@H]([C@@H](C)O)NC(=O)[C@H](CC(C)C)NC2=O)c1)C(=O)O [3BP-4361] ({DOTA}-[X2]VYCE[dP]D[X35]LTWSC-NH2; linker 4-13 via mXylylene)
–	B (t1/2 between 5.1 and 15.0 minutes)	< 0.01 µM	–	0.01 to 0.0794 µM	CC(=O)N[C@@H](CC(=O)Nc1cccc(C[C@@H]2NC(=O)[C@H](CC(=O)O)NC(=O)[C@H]3CCCN3C(=O)[C@H](CCC(=O)O)NC(=O)[C@@H](NC(=O)[C@H](Cc3ccc(O)cc3)NC(=O)[C@@H](NC(=O)CN3CCC(NC(=O)CN4CCN(CC(=O)O)CCN(CC(=O)O)CCN(CC(=O)O)CC4)CC3)C(C)C)CSCc3cccc(c3)CSC[C@@H](C(N)=O)NC(=O)[C@H](CO)NC(=O)[C@H](Cc3c[nH]c4ccccc34)NC(=O)[C@H]([C@@H](C)O)NC(=O)[C@H](CC(C)C)NC2=O)c1)C(=O)O [3BP-4363] ({DOTA}-[X2]VYCE[dP]D[X33]LTWSC-NH2; linker 4-13 via mXylylene)
< 0.01 µM	C (t1/2 between 2.1 and 5.0 minutes)	< 0.01 µM	–	–	CC(C)C[C@@H]1NC(=O)[C@H](Cc2c[nH]c3ccccc23)NC(=O)[C@H](CC(=O)O)NC(=O)CN(C)C(=O)[C@H](CCC(=O)O)NC(=O)[C@@H](NC(=O)[C@H](Cc2ccc(O)cc2)NC(=O)[C@@H](NC(=O)CCC(=O)NCCCOCCOCCOCCCNC(=O)CN2CCN(CC(=O)O)CCN(CC(=O)O)CCN(CC(=O)O)CC2)C(C)C)CSCc2cccc(c2)CSC[C@@H](C(N)=O)NC(=O)[C@H](CCC(N)=O)NC(=O)[C@H](Cc2c[nH]c3ccccc23)NC(=O)[C@H]([C@@H](C)O)NC1=O [3BP-3271] ({X3-Suc}-VYCE[Sar]DWLTWQC-NH2; linker 3-12 via mXylylene)
–	A (t1/2>15.0 minutes)	< 0.01 µM	< 0.01 µM	–	CC(C)C[C@@H]1NC(=O)[C@H](Cc2ccc(NC(=O)CCS(N)(=O)=O)cc2)NC(=O)[C@H](CC(=O)O)NC(=O)[C@H]2CCCN2C(=O)[C@H](CCC(=O)O)NC(=O)[C@@H](NC(=O)[C@H](CCC(N)=O)NC(=O)CN2CCN(C(=O)CN3CCN(CC(=O)O)CCN(CC(=O)O)CCN(CC(=O)O)CC3)CC2)CSCc2cccc(c2)CSC[C@@H](C(N)=O)NC(=O)[C@H](CO)NC(=O)[C@H](Cc2c[nH]c3ccccc23)NC(=O)[C@H]([C@@H](C)O)NC1=O [3BP-4500] ({DOTA}-[X1]QCE[dP]D[Phe(4-NH2)](Propanoyl(3-SO2NH2))LTWSC-NH2; linker 3-12 via mXylylene)
–	A (t1/2>15.0 minutes)	< 0.01 µM	< 0.01 µM	–	CC(C)C[C@@H]1NC(=O)[C@H](Cc2cccc(NC(=O)CCCS(N)(=O)=O)c2)NC(=O)[C@H](CC(=O)O)NC(=O)[C@H]2CCCN2C(=O)[C@H](CCC(=O)O)NC(=O)[C@@H](NC(=O)[C@H](Cc2ccc(O)cc2)NC(=O)[C@@H]2CCCN(C(=O)CN3CCN(CC(=O)O)CCN(CC(=O)O)CCN(CC(=O)O)CC3)C2)CSCc2cccc(c2)CSC[C@@H](C(N)=O)NC(=O)[C@H](CO)NC(=O)[C@H](Cc2c[nH]c3ccccc23)NC(=O)[C@H]([C@@H](C)O)NC1=O [3BP-4455] ({DOTA}-[Nip(3R)]YCE[dP]D[Phe(3-NHCO(CH2)3SO2NH2)]LTWSC-NH2; linker 3-12 via mXylylene)
–	C (t1/2 between 2.1 and 5.0 minutes)	< 0.01 µM	< 0.01 µM	–	CC(C)C[C@@H]1NC(=O)[C@H](Cc2ccc(C(F)(F)F)cc2)NC(=O)[C@H](CC(=O)O)NC(=O)[C@H]2CCCN2C(=O)[C@H](CCC(=O)O)NC(=O)[C@@H](NC(=O)[C@H](Cc2ccc(O)cc2)NC(=O)[C@@H](NC(=O)CN2CCC(NC(=O)CN3CCN(CC(=O)O)CCN(CC(=O)O)CCN(CC(=O)O)CC3)CC2)C(C)C)CSCc2cccc(c2)CSC[C@@H](C(N)=O)NC(=O)[C@H](CO)NC(=O)[C@H](Cc2c[nH]c3ccccc23)NC(=O)[C@H]([C@@H](C)O)NC1=O [3BP-4139] ({DOTA}-[X2]VYCE[dP]D[Phe(4-CF3)]LTWSC-NH2; linker 4-13 via mXylylene)
< 0.01 µM	–	< 0.01 µM	–	–	CC(=O)N[C@H](C(=O)N[C@@H](Cc1ccc(O)cc1)C(=O)N[C@H]1CSCc2cccc(c2)CSC[C@@H](C(N)=O)NC(=O)[C@H](C)NC(=O)[C@H](Cc2c[nH]c3ccccc23)NC(=O)[C@H]([C@@H](C)O)NC(=O)[C@H](CC(C)C)NC(=O)[C@H](Cc2c[nH]c3ccccc23)NC(=O)[C@H](CC(=O)O)NC(=O)[C@H]2CCCCN2C(=O)[C@H](CCC(=O)O)NC1=O)C(C)C [3BP-3283] (Ac-VYCE[dPip]DWLTWAC-NH2; linker 3-12 via mXylylene)

Compound	IC50 [1, 3]	t1/2 category (activity) [2]	Kd [2]	IC50 [1, 4]	IC50 [1, 5]
CC(C)C[C@@H]1NC(=O)[C@H](Cc2ccc(NC(=O)c3ccc(S(N)(=O)=O)cc3)cc2)NC(=O)[C@H](CC(=O)O)NC(=O)[C@H]2CCCN2C(=O)[C@H](CCC(=O)O)NC(=O)[C@@H](NC(=O)[C@H](Cc2ccc(O)cc2)NC(=O)[C@@H](NC(=O)CN2CCC(NC(=O)CN3CCN(CC(=O)O)CCN(CC(=O)O)CCN(CC(=O)O)CC3)CC2)C(C)C)CSCc2cccc(c2)CSC[C@@H](C(N)=O)NC(=O)[C@H](CO)NC(=O)[C@H](Cc2c[nH]c3ccccc23)NC(=O)[C@H]([C@@H](C)O)NC1=O [3BP-4398] ({DOTA}-[X2]VYCE[dP]D[Phe(4-NH2)](Benzoyl(4-SO2NH2))LTWSC-NH2; linker 4-13 via mXylylene)	–	C (t1/2 between 2.1 and 5.0 minutes)	< 0.01 µM	–	0.01 to 0.0794 µM

Reference: patent US20250339569A1, “CARBONIC ANHYDRASE IX LIGANDS” (priority 2021, published 2025)
